We go through one substance from paper PMC3509364 (Angewandte Chemie (International ed. in English), 2012).

This test has as its target PAK1 (Homo sapiens, UniProt Q13153). Put plainly: PAK1 kinase inhibition, IC50 curves at 1 µM ATP. In kind it is biochemical.

Sequence of PAK1 (Q13153 whole entry): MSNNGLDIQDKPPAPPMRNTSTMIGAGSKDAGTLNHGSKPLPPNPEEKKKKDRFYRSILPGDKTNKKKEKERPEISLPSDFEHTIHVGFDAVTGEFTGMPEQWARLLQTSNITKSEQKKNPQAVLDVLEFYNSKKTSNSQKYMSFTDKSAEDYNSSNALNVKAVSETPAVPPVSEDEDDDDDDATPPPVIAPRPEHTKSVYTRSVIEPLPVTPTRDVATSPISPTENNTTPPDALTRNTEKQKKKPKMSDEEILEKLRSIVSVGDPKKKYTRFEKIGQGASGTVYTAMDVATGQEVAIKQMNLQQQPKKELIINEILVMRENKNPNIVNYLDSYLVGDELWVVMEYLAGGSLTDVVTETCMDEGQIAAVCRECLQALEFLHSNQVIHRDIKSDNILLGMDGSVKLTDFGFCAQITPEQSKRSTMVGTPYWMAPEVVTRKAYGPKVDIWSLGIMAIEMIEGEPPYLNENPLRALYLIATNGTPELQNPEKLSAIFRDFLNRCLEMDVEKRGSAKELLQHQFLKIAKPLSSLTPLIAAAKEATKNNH

Consider SeCN, for which the “fold weaker inhibitor of PAK1 than NCS complex 1” value (ratio of IC50 values, 1 µM ATP) was 7.5 fold. For the same substance, the IC50 (in general, the concentration that inhibits the measured activity by half) (read-out: IC50 against PAK1, 1 µM ATP (Figure 3)) turned out to be 0.625 ± 0.06 µM.
